Structures are written as SMILES. Where two headings read alike, the source gives them in different places. A value given as a limit tells only on which side of the number the result lay.

For experiment [1], the system named is beet armyworm (BAW; Spodoptera exigua: Lepidoptera). Description: 96-well microtiter plate-based high throughput (HTS) bioassay on beet armyworm (BAW HTS). The class given is in vivo. Particulars: 144 h, read-out: BAW HTS. The protocol: (§1) Bioassays on beet armyworm (BAW; Spodoptera exigua: Lepidoptera) were conducted using either a 96-well microtiter plate-based high throughput (HTS) bioassay or a 128-well diet tray assay. The HTS assay is based on a modification of Lewer et al. J. Nat. Prod. 2006, 69, 1506. BAW eggs were placed on top of artificial diet (100 μL) in each well of a 96-well microtiter plate. The diet was pretreated with test compounds (12 μg dissolved in 30 μL of DMSO-acetone-H2O mixture) layered on top of the diet using a liquid handling system and then allowed to dry for several hours. Infested plates were then covered with a layer of sterile cotton batting and the plate lid, and then held in the dark at 29° C. Mortality was recorded at 6 days post-treatment. Each plate had six replicates. The percent mortality was calculated from the average of the six replicates. In the case of the 128-well diet assay, three to five second instar BAW larvae were placed in each well (3 mL) of the diet tray that had been previously filled with 1 mL of artificial diet to which 50 ug/cm^2 of the test compound (dissolved in 50 μL of 90:10 acetone-water mixture) had been applied (to each of eight wells) and then allowed to dry. Trays were covered with a clear self-adhesive cover, and held at 25° C., 14:10 light-dark for six days. Percent mortality was recorded for the larvae in each well; activity in the eight wells was then averaged. In Table 4, under both the BAW HTS and BAW 50 headings, an “A” means that the compound was tested and at least 50 percent mortality was observed whereas, “B” means that either (1) the compound was tested and less than 50 percent mortality was observed or (2) the compound was not tested.

Experiment [2] shares this test system. Description: 128-well diet tray assay on beet armyworm (BAW 50). It counts as in vivo. Conditions: 144 h, read-out: BAW 50. As to the method: as §1
The mark [3] stands for this setting: percent mortality, 96-well HTS, 12 μg test compound on diet, BAW eggs, 6 days post-treatment, 29° C., average of six replicates.
Where [4] appears, read: percent mortality, 128-well diet assay, 50 ug/cm^2 of test compound on diet, second instar BAW larvae, six days, 25° C., average of eight wells.

For the molecule `CCO[C@@H]1[C@@H](OC)[C@H](C)O[C@@H](OC(=O)Nc2ccc(/N=N/c3ccc(OC(F)(F)C(F)(F)F)cc3)cc2)[C@@H]1OC` [Compound 22, [4-(4-Pentafluoroethyloxyphenylazo)-phenyl]-carbamic acid (2S,3R,4R,5S,6S)-4-ethoxy-3,5-dimethoxy-6-methyl-tetrahydropyran-2-yl ester], the pest or weed control at 12 µg/well, 12 µg/well in experiment [1] was above 50%. In addition, the pest or weed control at 50 µg/cm2, 50 µg/cm2 in experiment [2] was above 50%.

`CCOc1ccc(/C=C/c2ccc(NC(=O)O[C@@H]3O[C@@H](C)[C@H](OC)[C@@H](OC)[C@H]3OC)cc2)cc1` [Compound 17, {4-[(E)-2-(4-Ethoxyphenyl)-vinyl]-phenyl}-carbamic acid (2S,3R,4R,5S,6S)-3,4,5-tri-methoxy-6-methyl-tetrahydropyran-2-yl ester]: the pest or weed control at 12 µg/well, 12 µg/well in experiment [1] is below 50%. In experiment [2], the pest or weed control at 50 µg/cm2, 50 µg/cm2 is above 50%.

For `CO[C@@H]1[C@@H](OC)[C@H](C)O[C@@H](O/N=C/c2ccc(/C=C/c3ccc(C(F)(F)F)cc3)cc2)[C@@H]1OC` [Compound 12, 4-[(E)-2-(4-Trifluoromethylphenyl)-vinyl]-benzaldehyde O-((2S,3R,4R,5S,6S)-3,4,5-trimethoxy-6-methyl-tetrahydropyran-2-yl)-oxime], the pest or weed control at 12 µg/well, 12 µg/well in experiment [1] (setting [3]) is above 50%. Also, the pest or weed control at 50 µg/cm2, 50 µg/cm2 in experiment [2] (setting [4]) was above 50%.

For the molecule `CCO[C@@H]1[C@@H](OC)[C@H](C)O[C@@H](OC(=O)Nc2ccc(/N=N/c3cccc(OC(F)(F)F)c3)cc2)[C@@H]1OC` [Compound 19, [4-(3-trifluoromethoxyphenylazo)-phenyl]-carbamic acid (2S,3R,4R,5S,6S)-3,5-dimethoxy-4-ethoxy-6-methyl-tetrahydropyran-2-yl ester], the pest or weed control at 12 µg/well, 12 µg/well in experiment [1] was above 50%. The pest or weed control at 50 µg/cm2, 50 µg/cm2 in experiment [2] is above 50%.

With `CCO[C@@H]1[C@@H](OC)[C@H](C)O[C@@H](O/N=C/c2ccc(C#Cc3ccc(OC(F)(F)F)cc3)cc2)[C@@H]1OC` [Compound 13, 4-(4-trifluoromethoxyphenylethynyl)-benzaldehyde O-((2S,3R,4R,5S,6S)-4-ethoxy-3,5-dimethoxy-6-methyl-tetrahydropyran-2-yl)-oxime], the pest or weed control at 12 µg/well, 12 µg/well in experiment [1] (setting [3]) was above 50%. In addition, the pest or weed control at 50 µg/cm2, 50 µg/cm2 in experiment [2] (setting [4]) was above 50%.

In the case of `CO[C@@H]1[C@@H](OC)[C@H](C)O[C@@H](O/N=C/c2ccc(C#Cc3ccc(C(F)(F)F)cc3)cc2)[C@@H]1OC` [Compound 15, 4-(4-Trifluoromethylphenylethynyl)-benzaldehyde O-((3R,4R,5S,6S)-3,4,5-trimethoxy-6-methyl-tetrahydropyran-2-yl)-oxime], the pest or weed control at 12 µg/well, 12 µg/well in experiment [1] (setting [3]) was above 50%. For the same molecule, the pest or weed control at 50 µg/cm2, 50 µg/cm2 in experiment [2] (setting [4]) is above 50%.

For the molecule `CCO[C@@H]1[C@@H](OC)[C@H](C)O[C@@H](OC(=O)Nc2ccc(/N=N/c3ccc(OC(F)(F)F)cc3)cc2)[C@@H]1OC` [Compound 20, [4-(4-Trifluoromethoxy-phenylazo)-phenyl]-carbamic acid (2S,3R,4R,5S,6S)-4-ethoxy-3,5-dimethoxy-6-methyl-tetrahydropyran-2-yl ester], in experiment [1], the pest or weed control at 12 µg/well, 12 µg/well was above 50%. In addition, in experiment [2], the pest or weed control at 50 µg/cm2, 50 µg/cm2 is above 50%.

`CCO[C@@H]1[C@@H](OC)[C@H](C)O[C@@H](O/N=C/c2ccc(C#Cc3ccc(C(F)(F)F)cc3)cc2)[C@@H]1OC` [Compound 14, 4-(4-Trifluoromethylphenylethynyl)-benzaldehyde O-((2S,3R,4R,5S,6S)-4-ethoxy-3,5-dimethoxy-6-methyl-tetrahydropyran-2-yl)-oxime]: the pest or weed control at 12 µg/well, 12 µg/well in experiment [1] (setting [3]) is above 50%. Also, the pest or weed control at 50 µg/cm2, 50 µg/cm2 in experiment [2] (setting [4]) is above 50%.

For the molecule `CCO[C@@H]1[C@@H](OC)[C@H](C)O[C@@H](O/N=C/c2ccc(/C=C/c3cccc(C(F)(F)F)c3)cc2)[C@@H]1OC` [Compound 6, 4-[(E)-2-(3-Trifluoromethylphenyl)-vinyl]-benzaldehyde O-((2S,3R,4R,5S,6S)-4-ethoxy-3,5-dimethoxy-6-methyl-tetrahydropyran-2-yl)-oxime], the pest or weed control at 12 µg/well, 12 µg/well in experiment [1] (setting [3]) is above 50%. Besides, the pest or weed control at 50 µg/cm2, 50 µg/cm2 in experiment [2] (setting [4]) was above 50%.

As to `CCO[C@@H]1[C@@H](OC)[C@H](C)O[C@@H](O/N=C/c2ccc(/C=C/c3ccc(C(F)(F)F)cc3)cc2)[C@@H]1OC` [Compound 2, 4-[(E)-2-(4-Trifluoromethylphenyl)-vinyl]-benzaldehyde O-((2S,3R,4R,5S,6S)-4-ethoxy-3,5-dimethoxy-6-methyl-tetrahydropyran-2-yl)-oxime], the pest or weed control at 12 µg/well, 12 µg/well in experiment [1] (setting [3]) is above 50%. For the same molecule, the pest or weed control at 50 µg/cm2, 50 µg/cm2 in experiment [2] (setting [4]) is above 50%.

As for `CCO[C@@H]1[C@@H](OC)[C@H](C)O[C@@H](O/N=C/c2ccc(/C=C/c3ccc(C(C)=O)cc3)cc2)[C@@H]1OC` [Compound 4, 4-[(E)-2-(4-Acetyl-phenyl)-vinyl]-benzaldehyde O-((2S,3R,4R,5S,6S)-4-ethoxy-3,5-dimethoxy-6-methyl-tetrahydropyran-2-yl)-oxime], in experiment [1] (setting [3]), the pest or weed control at 12 µg/well, 12 µg/well was below 50%. Further, the pest or weed control at 50 µg/cm2, 50 µg/cm2 in experiment [2] (setting [4]) was below 50%.

For `CCO[C@@H]1[C@@H](OC)[C@H](C)O[C@@H](O/N=C/c2ccc(/C=C/c3ccc(OC(F)(F)C(F)(F)F)cc3)cc2)[C@@H]1OC` [Compound 7, 4-[(E)-2-(4-Pentafluoroethyloxyphenyl)-vinyl]-benzaldehyde O-((2S,3R,4R,5S,6S)-4-ethoxy-3,5-dimethoxy-6-methyl-tetrahydropyran-2-yl)-oxime], in experiment [1] (setting [3]), the pest or weed control at 12 µg/well, 12 µg/well is below 50%. Also, the pest or weed control at 50 µg/cm2, 50 µg/cm2 in experiment [2] (setting [4]) was above 50%.

Consider `CCCO[C@@H]1[C@@H](OC)[C@H](C)O[C@@H](O/N=C/c2ccc(/C=C/c3ccc(OC(F)(F)F)cc3)cc2)[C@@H]1OC` [Compound 1, 4-[(E)-2-(4-trifluoromethoxyphenyl)-vinyl]-benzaldehyde O-((2S,3R,4R,5S,6S)-3,5-dimethoxy-6-methyl-4-propoxy-tetrahydropyran-2-yl)-oxime], for which, in experiment [1] (setting [3]), the pest or weed control at 12 µg/well, 12 µg/well was above 50%. Further, the pest or weed control at 50 µg/cm2, 50 µg/cm2 in experiment [2] (setting [4]) is above 50%.

Source of the values: patent US8394774B2, “Pesticidal compositions” (Dow AgroSciences, LLC., priority 2009, dated 2013).
